Data taken from ChEMBL document CHEMBL1201862, “PubChem BioAssay data set” (2004).
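Briefly, cells in 96-well plates were exposed to five compound concentrations for 48 h, and endpoints were estimated by linear interpolation. GI50 is the concentration that inhibits growth by half.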 The source made the active and inactive calls. No stated cut-off is given here; in the data, active = GI50 up to about 1.1 µM and inactive = higher.

Key:
Assay in all cases: growth of human tumour cells (NCI), 48 h
[1] = system: 786-0
[2] = system: A549
[3] = system: ACHN
[4] = system: CAKI-1
[5] = system: CCRF-CEM
[6] = system: COLO 205
[7] = system: DLD-1
[8] = system: DMS-114
[9] = system: DMS-273
[10] = system: EKVX
[11] = system: HCC 2998
[12] = system: HCT-116
[13] = system: HCT-15
[14] = system: HL-60
[15] = system: HOP-18
[16] = system: HOP-62
[17] = system: HOP-92
[18] = system: HT-29
[19] = system: IGROV-1
[20] = system: K562
[21] = system: KM12
[22] = system: LOX IMVI
[23] = system: LXFL 529
[24] = system: M14
[25] = system: M19-MEL
[26] = system: MOLT-4
[27] = system: Malme-3M
[28] = system: NCI-H226
[29] = system: NCI-H23
[30] = system: NCI-H522
[31] = system: OVCAR-3
[32] = system: OVCAR-5
[33] = system: OVCAR-8
[34] = system: RPMI-8226
[35] = system: RXF 631
[36] = system: SF-268
[37] = system: SF-295
[38] = system: SF-539
[39] = system: SK-MEL-28
[40] = system: SK-MEL-2
[41] = system: SK-MEL-5
[42] = system: SK-OV-3
[43] = system: SN12C
[44] = system: SNB-75
[45] = system: SNB-78
[46] = system: SR
[47] = system: SW-620
[48] = system: TK-10
[49] = system: U-251
[50] = system: UACC-257
[51] = system: UACC-62
[52] = system: UO-31
[53] = system: XF498
[54] = system: A498
[55] = system: KM-20L2
[56] = system: NCI-H460
[57] = system: RXF 393
[58] = system: SNB-19
[59] = system: OVCAR-4

Measured: GI50

CCOC(=O)/C(Br)=C1/OC(=O)c2ccccc2-c2ccccc21.CCOC(=O)/C(Br)=C1\OC(=O)c2ccccc2-c2ccccc21
19.6 µM: [13]
inactive: [1] 17.1 µM | [2] 26.3 µM | [3] 15.7 µM | [4] 16.4 µM | [5] 10.9 µM | [6] 15.2 µM | [7] 17.9 µM | [8] 15.4 µM | [9] 14.7 µM | [10] 31.7 µM | [11] 21 µM | [12] 17.7 µM | [14] 8.3 µM | [15] 22 µM | [16] 18.5 µM | [17] 11.8 µM | [18] 11.3 µM | [19] 18.6 µM | [20] 4.3 µM | [21] 14.8 µM | [22] 16.5 µM | [23] 13.6 µM | [24] 17 µM | [25] 15.8 µM | [26] 14.7 µM | [27] 17.7 µM | [28] 27.3 µM | [29] 21 µM | [30] 15.8 µM | [31] 18.2 µM | [32] 20 µM | [33] 23.1 µM | [34] 8.97 µM | [35] 21.9 µM | [36] 30.7 µM | [37] 21.9 µM | [38] 21.5 µM | [39] 18.6 µM | [40] 18.5 µM | [41] 17.5 µM | [42] 36.2 µM | [43] 22.8 µM | [44] 25.2 µM | [45] 20.6 µM | [46] 16 µM | [47] 16.1 µM | [48] 21.6 µM | [49] 23.2 µM | [50] 18.2 µM | [51] 15.4 µM | [52] 39.8 µM | [53] 18.5 µM

COc1ccc(C2CC(C)=Nc3c(O)nc(S)nc3N2)cc1 (stereo not given)
16.3 µM: [13]
inactive: [1] 17.1 µM | [54] 19.2 µM | [2] 16.9 µM | [3] 18.7 µM | [4] 27.6 µM | [5] 24.2 µM | [6] 18.6 µM | [8] 21 µM | [9] 16.7 µM | [10] 22.1 µM | [11] 16.7 µM | [12] 16.5 µM | [14] 17.7 µM | [15] 62.7 µM | [16] 25.4 µM | [17] > 100 µM | [18] 28.5 µM | [19] 18.8 µM | [20] 16.6 µM | [55] 16.7 µM | [21] 17.4 µM | [22] 17.4 µM | [23] 16.6 µM | [24] 19.6 µM | [25] 16.9 µM | [26] 23.1 µM | [27] > 100 µM | [28] 17.2 µM | [29] 30.5 µM | [56] 16.6 µM | [30] 16.3 µM | [31] 22.4 µM | [32] 23.4 µM | [33] 20 µM | [34] 22.3 µM | [57] 18.8 µM | [35] 25.6 µM | [36] 37.7 µM | [37] 22 µM | [38] 24.5 µM | [39] 27 µM | [40] 63.8 µM | [41] 16.7 µM | [42] 18.1 µM | [43] 19.4 µM | [58] 18.7 µM | [44] 17.6 µM | [45] 46.7 µM | [46] 25.6 µM | [47] 5.27 µM | [48] 20.8 µM | [49] 17.3 µM | [50] 16.8 µM | [51] 17.4 µM | [52] 17.9 µM | [53] 24.8 µM

O=c1c2ccccc2nc(-c2cccc(Cl)c2)n1NC1OC(CO)C(O)C(O)C1O (stereo not given)
inactive: [1] > 100 µM | [54] > 100 µM | [2] > 100 µM | [3] > 100 µM | [4] > 100 µM | [5] 73.3 µM | [6] > 100 µM | [8] > 100 µM | [9] > 100 µM | [10] > 100 µM | [11] > 100 µM | [12] > 100 µM | [14] > 100 µM | [15] 50.8 µM | [16] > 100 µM | [17] > 100 µM | [18] > 100 µM | [19] > 100 µM | [20] > 100 µM | [55] > 100 µM | [21] > 100 µM | [23] > 100 µM | [24] > 100 µM | [25] > 100 µM | [26] > 100 µM | [27] > 100 µM | [28] > 100 µM | [29] > 100 µM | [56] > 100 µM | [30] > 100 µM | [31] > 100 µM | [59] > 100 µM | [32] > 100 µM | [33] > 100 µM | [34] > 100 µM | [35] > 100 µM | [36] > 100 µM | [37] > 100 µM | [38] > 100 µM | [39] > 100 µM | [40] > 100 µM | [41] > 100 µM | [42] > 100 µM | [43] > 100 µM | [58] > 100 µM | [44] > 100 µM | [45] > 100 µM | [47] > 100 µM | [48] > 100 µM | [49] > 100 µM | [50] > 100 µM | [51] > 100 µM | [52] > 100 µM | [53] > 100 µM
> 100 µM: [13]

CC(=O)NNc1nc(C)c(C(=O)/C=C/c2cccc([N+](=O)[O-])c2)s1
inactive: [1] > 100 µM | [54] > 100 µM | [2] > 100 µM | [4] > 100 µM | [5] > 100 µM | [6] > 100 µM | [7] > 100 µM | [8] > 100 µM | [9] > 100 µM | [10] 19.5 µM | [11] > 100 µM | [12] > 100 µM | [14] > 100 µM | [15] > 100 µM | [16] > 100 µM | [17] > 100 µM | [18] > 100 µM | [19] > 100 µM | [20] > 100 µM | [55] > 100 µM | [21] > 100 µM | [22] > 100 µM | [23] > 100 µM | [24] > 100 µM | [25] > 100 µM | [26] > 100 µM | [27] > 100 µM | [28] > 100 µM | [29] > 100 µM | [56] > 100 µM | [30] > 100 µM | [31] > 100 µM | [32] > 100 µM | [33] > 100 µM | [34] > 100 µM | [57] > 100 µM | [35] > 100 µM | [36] > 100 µM | [37] > 100 µM | [38] > 100 µM | [39] > 100 µM | [40] > 100 µM | [41] > 100 µM | [42] > 100 µM | [43] > 100 µM | [58] > 100 µM | [45] > 100 µM | [46] > 100 µM | [47] > 100 µM | [48] > 100 µM | [49] > 100 µM | [50] > 100 µM | [51] > 100 µM | [52] > 100 µM
> 100 µM: [13]
